From PubChem BioAssay AID2060909 (Molecular Pharmacology Branch, DTP, NCI, 2025)

Tested on: 362531-283-R-J2-PDC complex spheroid viability
Assay: Anticancer human tumor 362531-283-R-J2-PDC patient-derived colon adenocarcinoma cell line growth inhibition [RAS]
Settings: for IC50: curve of first compound; for viability, T/C: stronger effect = lower value
How it was run: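 Agents were tested in combination matrices in half-log decrements from a top concentration at or near clinical Cmax (10 microM if undetermined). Targets were multi-cell spheroids of tumour lines plus HUVEC and MSC stromal cells.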

[1] = second compound 0.0316 µM, first compound 0.0316 µM
[2] = second compound 0.0316 µM, first compound 0.1 µM
[3] = second compound 0.0316 µM, first compound 0.316 µM
[4] = second compound 0.0316 µM, first compound 1 µM
[5] = second compound 0.1 µM, first compound 0.0316 µM
[6] = second compound 0.1 µM, first compound 0.1 µM
[7] = second compound 0.1 µM, first compound 0.316 µM
[8] = second compound 0.1 µM, first compound 1 µM
[9] = second compound 0.316 µM, first compound 0.0316 µM
[10] = second compound 0.316 µM, first compound 0.1 µM
[11] = second compound 0.316 µM, first compound 0.316 µM
[12] = second compound 0.316 µM, first compound 1 µM
[13] = second compound 1 µM, first compound 0.0316 µM
[14] = second compound 1 µM, first compound 0.1 µM
[15] = second compound 1 µM, first compound 0.316 µM
[16] = second compound 1 µM, first compound 1 µM
[17] = second compound 3.16 µM, first compound 0.0316 µM
[18] = second compound 3.16 µM, first compound 0.1 µM
[19] = second compound 3.16 µM, first compound 0.316 µM
[20] = second compound 3.16 µM, first compound 1 µM
[21] = second compound 10 µM, first compound 0.0316 µM
[22] = second compound 10 µM, first compound 0.1 µM
[23] = second compound 10 µM, first compound 0.316 µM
[24] = second compound 10 µM, first compound 1 µM
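Note: spheroids exposed to the agents for 7 days before readout.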
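Throughout, for viability, T/C: luminescence viability as percent of DMSO vehicle control wells.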

C=CC(=O)N1CCN(c2nc(OCC3CCCN3C)nc3c(F)c(-c4nc(N)cc(C)c4C(F)(F)F)c(Cl)cc23)C(C)C1 (stereo unspecified) + C#Cc1c(F)ccc2cc(O)cc(-c3ncc4c(N5CC6CCC(C5)N6)nc(OCC56CCCN5CC(F)C6)nc4c3F)c12
IC50 (second compound 0.0316 µM): > 1 µM | IC50 (second compound 0.1 µM): > 1 µM | IC50 (second compound 0.316 µM): > 1 µM | IC50 (second compound 1 µM): > 1 µM | IC50 (second compound 3.16 µM): > 1 µM | IC50 (second compound 10 µM): < 0.00316 µM | viability, T/C (second compound 0.0316 µM, first compound 0.00316 µM): 98.1% | viability, T/C (second compound 0.0316 µM, first compound 0.01 µM): 94.4% | viability, T/C [1]: 95.5% | viability, T/C [2]: 98.4% | viability, T/C [3]: 97.8% | viability, T/C [4]: 89.6% | viability, T/C (second compound 0.1 µM, first compound 0.00316 µM): 93.6% | viability, T/C (second compound 0.1 µM, first compound 0.01 µM): 93.1% | viability, T/C [5]: 97.1% | viability, T/C [6]: 92.3% | viability, T/C [7]: 98.7% | viability, T/C [8]: 98.3% | viability, T/C (second compound 0.316 µM, first compound 0.00316 µM): 82.6% | viability, T/C (second compound 0.316 µM, first compound 0.01 µM): 78.6% | viability, T/C [9]: 90.9% | viability, T/C [10]: 97.8% | viability, T/C [11]: 89.3% | viability, T/C [12]: 90.7% | viability, T/C (second compound 1 µM, first compound 0.00316 µM): 80.7% | viability, T/C (second compound 1 µM, first compound 0.01 µM): 74.4% | viability, T/C [13]: 82.7% | viability, T/C [14]: 70.4% | viability, T/C [15]: 82.7% | viability, T/C [16]: 74.4% | viability, T/C (second compound 3.16 µM, first compound 0.00316 µM): 66.5% | viability, T/C (second compound 3.16 µM, first compound 0.01 µM): 69% | viability, T/C [17]: 71.2% | viability, T/C [18]: 80.8% | viability, T/C [19]: 58.1% | viability, T/C [20]: 71.7% | viability, T/C (second compound 10 µM, first compound 0.00316 µM): 39.9% | viability, T/C (second compound 10 µM, first compound 0.01 µM): 48% | viability, T/C [21]: 46.7% | viability, T/C [22]: 38.1% | viability, T/C [23]: 49.6% | viability, T/C [24]: 42.7%

CC(=O)OC12COC1CC(O)C1(C)C(=O)C(O)C3=C(C)C(OC(=O)C(O)C(NC(=O)OC(C)(C)C)c4ccccc4)CC(O)(C(OC(=O)c4ccccc4)C21)C3(C)C (stereo unspecified) + C#Cc1c(F)ccc2cc(O)cc(-c3ncc4c(N5CC6CCC(C5)N6)nc(OCC56CCCN5CC(F)C6)nc4c3F)c12
IC50 (second compound 0.0316 µM): 0.169 µM | IC50 (second compound 0.1 µM): 0.17 µM | IC50 (second compound 0.316 µM): 0.14 µM | IC50 (second compound 1 µM): 0.103 µM | IC50 (second compound 3.16 µM): 0.0543 µM | IC50 (second compound 10 µM): < 0.0316 µM | viability, T/C [1]: 83.2% | viability, T/C [2]: 76.4% | viability, T/C [3]: 18.4% | viability, T/C [4]: 14% | viability, T/C (second compound 0.0316 µM, first compound 3.16 µM): 14.6% | viability, T/C (second compound 0.0316 µM, first compound 10 µM): 18.5% | viability, T/C [5]: 81.9% | viability, T/C [6]: 80.5% | viability, T/C [7]: 13.6% | viability, T/C [8]: 13.6% | viability, T/C (second compound 0.1 µM, first compound 3.16 µM): 13.4% | viability, T/C (second compound 0.1 µM, first compound 10 µM): 15.5% | viability, T/C [9]: 90.9% | viability, T/C [10]: 64.4% | viability, T/C [11]: 15.1% | viability, T/C [12]: 11.7% | viability, T/C (second compound 0.316 µM, first compound 3.16 µM): 12.9% | viability, T/C (second compound 0.316 µM, first compound 10 µM): 11.8% | viability, T/C [13]: 81.2% | viability, T/C [14]: 50.8% | viability, T/C [15]: 13.6% | viability, T/C [16]: 14.6% | viability, T/C (second compound 1 µM, first compound 3.16 µM): 13.6% | viability, T/C (second compound 1 µM, first compound 10 µM): 13.1% | viability, T/C [17]: 65.6% | viability, T/C [18]: 32.4% | viability, T/C [19]: 14.2% | viability, T/C [20]: 15% | viability, T/C (second compound 3.16 µM, first compound 3.16 µM): 13.5% | viability, T/C (second compound 3.16 µM, first compound 10 µM): 13.5% | viability, T/C [21]: 32.3% | viability, T/C [22]: 15.6% | viability, T/C [23]: 13.5% | viability, T/C [24]: 15.1% | viability, T/C (second compound 10 µM, first compound 3.16 µM): 13.6% | viability, T/C (second compound 10 µM, first compound 10 µM): 12.5%

CCc1c2c(nc3ccc(O)cc13)-c1cc3c(c(=O)n1C2)COC(=O)[C@]3(O)CC + C#Cc1c(F)ccc2cc(O)cc(-c3ncc4c(N5CC6CCC(C5)N6)nc(OCC56CCCN5CC(F)C6)nc4c3F)c12
IC50 (second compound 0.0316 µM): 0.0422 µM | IC50 (second compound 0.1 µM): 0.0224 µM | IC50 (second compound 0.316 µM): 0.0166 µM | IC50 (second compound 1 µM): 0.0114 µM | IC50 (second compound 3.16 µM): 0.00245 µM | IC50 (second compound 10 µM): < 0.000949 µM | viability, T/C (second compound 0.0316 µM, first compound 0.000949 µM): 95.2% | viability, T/C (second compound 0.0316 µM, first compound 0.003 µM): 91.8% | viability, T/C (second compound 0.0316 µM, first compound 0.00949 µM): 71.5% | viability, T/C (second compound 0.0316 µM, first compound 0.03 µM): 60.6% | viability, T/C (second compound 0.0316 µM, first compound 0.0949 µM): 32.3% | viability, T/C (second compound 0.0316 µM, first compound 0.3 µM): 18% | viability, T/C (second compound 0.1 µM, first compound 0.000949 µM): 92.7% | viability, T/C (second compound 0.1 µM, first compound 0.003 µM): 85.8% | viability, T/C (second compound 0.1 µM, first compound 0.00949 µM): 64.3% | viability, T/C (second compound 0.1 µM, first compound 0.03 µM): 47.2% | viability, T/C (second compound 0.1 µM, first compound 0.0949 µM): 25.3% | viability, T/C (second compound 0.1 µM, first compound 0.3 µM): 21.2% | viability, T/C (second compound 0.316 µM, first compound 0.000949 µM): 84.9% | viability, T/C (second compound 0.316 µM, first compound 0.003 µM): 84.3% | viability, T/C (second compound 0.316 µM, first compound 0.00949 µM): 57.7% | viability, T/C (second compound 0.316 µM, first compound 0.03 µM): 40.5% | viability, T/C (second compound 0.316 µM, first compound 0.0949 µM): 18.2% | viability, T/C (second compound 0.316 µM, first compound 0.3 µM): 13.9% | viability, T/C (second compound 1 µM, first compound 0.000949 µM): 72.7% | viability, T/C (second compound 1 µM, first compound 0.003 µM): 76% | viability, T/C (second compound 1 µM, first compound 0.00949 µM): 51.2% | viability, T/C (second compound 1 µM, first compound 0.03 µM): 30.2% | viability, T/C (second compound 1 µM, first compound 0.0949 µM): 18.5% | viability, T/C (second compound 1 µM, first compound 0.3 µM): 12.1% | viability, T/C (second compound 3.16 µM, first compound 0.000949 µM): 58.2% | viability, T/C (second compound 3.16 µM, first compound 0.003 µM): 50.5% | viability, T/C (second compound 3.16 µM, first compound 0.00949 µM): 29% | viability, T/C (second compound 3.16 µM, first compound 0.03 µM): 19.8% | viability, T/C (second compound 3.16 µM, first compound 0.0949 µM): 16.1% | viability, T/C (second compound 3.16 µM, first compound 0.3 µM): 7.69% | viability, T/C (second compound 10 µM, first compound 0.000949 µM): 39.3% | viability, T/C (second compound 10 µM, first compound 0.003 µM): 26.9% | viability, T/C (second compound 10 µM, first compound 0.00949 µM): 18.8% | viability, T/C (second compound 10 µM, first compound 0.03 µM): 16.2% | viability, T/C (second compound 10 µM, first compound 0.0949 µM): 12.3% | viability, T/C (second compound 10 µM, first compound 0.3 µM): 8.32%
